Columns and labels:
Abl kinases = assay: Abl kinase inhibition (IC50 kinase); format: biochemical
DENV = assay: Association of DENV with liposomes; format: biochemical
[1] = system: dengue virus serotype 2, DENV2; assay: Reduction of DENV viral titer by kinase inhibitors and labelled GNF2 derivatives (cell-based); conditions: for EC90: Dengue virus, DENV2, read-out: EC90 (dengue virus serotype 2, DENV2)
Description: In order to investigate the role of kinases on DENV entry, the order of addition of the cells, virus, and inhibitor was investigated. An inhibitor was either (i) contacted with a virus for 1 h at 37° C.; (ii) contacted with cells for 1 h at 37° C.; or (iii) contacted with a virus and cells for 1 h at 37° C. The cells were washed to remove virus and inhibitor. The washed cells were exposed to either DMSO or an inhibitor. Viral titer was measured at intervals post-infection by harvesting supernatants and measuring virus production by a plaque formation assay (PFA).

DENV2 [2] = assay: Order-of-addition / post-infection treatment, single-cycle DENV2 yield in BHK21 cells by plaque-formation assay; format: cell-based; conditions: for inhibition of DENV2 replication when added after infection: post-treatment of cells
Description: To examine the point(s) in the DENV infectious cycle affected by GNF-2, we performed order of addition experiments measuring the effect of GNF-2 when incubated with cells or virus prior to infection (PRE), when added at the time of infection (CO), or when added after the initial infection had been allowed to occur (POST). […] BHK21 cells were inoculated with DENV2 at a multiplicity of infection (MOI) of 1 and incubated for one-hour at 37° C. after which the inoculum was removed, the cells were washed, and fresh medium was added to limit infection to a single round. At twenty-four hours post-infection, corresponding to approximately one complete life cycle of DENV, the yield of infectious virions that had been released to the culture supernatant was quantified by plaque-formation assay (PFA) as a measure of successful DENV replication.

DENV2 [3] = assay: DENV2 infectivity assay, compound pre-incubated with virus inoculum, viral yield by plaque formation assay; conditions: treatment of the virus

Compound	IC50 (Abl kinases) [µM]	association of DENV with liposomes (DENV)	reduction of DENV viral titer [1]	EC90 [1] [µM]	IC90 (concentration causing a 10-fold decrease in single-cycle viral yield) (DENV2 [2]; added to cells post-infection, BHK21, MOI 1, 24 h) [μM]	inhibition of DENV2 replication when added after infection (DENV2 [2])	lowering of DV titer when pre-incubated with the virus, compared to DMSO control (DENV2 [3]) [log]
NC(=O)c1cccc(-c2cc(Nc3ccc(OC(F)(F)F)cc3)ncn2)c1 [GNF-2]	0.138 ± 0.005	does not block association	over 1 log unit	~1	8	inhibited DENV2 replication	~1
Cc1ccc(NC(=O)c2ccc(CN3CCN(C)CC3)cc2)cc1Nc1nccc(-c2cccnc2)n1 [imatinib]			did not	10		inhibited DENV2 replication	

From US10150742B2, “Substituted heterocyclic compounds for treating or preventing viral infections” (President and Fellows of Harvard College, priority 2013, dated 2018)
